According to patent US6348457B1, “4-[3-benzofuranyl]piperidinyl and 4-[3-benzothienyl]piperidinyl derivatives” (Janssen Pharmaceutica N.V., priority 1922, dated 2002):

Experiments:
Female Wistar rats = experiment: Reserpine Tremor Test; format: in vivo, rat; settings: route sc, dose 2.5 mg/kg, 90 min before testing; reserpine 2 mg/kg iv 60 min before testing; 15-min session; number of rats out of rats tested
Method: Female Wistar rats weighing 200-220 g were used. These test animals were food deprived for 24 hours. Said rats were pretreated orally (po) or subcutaneously (sc) with a test compound at 90 minutes before testing. This pretreatment was followed by an intravenous injection of 2 mg/kg reserpine at 60 minutes before testing. Two control groups of 20 rats each were included in the experiment. The first control group consisted of rats that were only treated with a saline solution and the second control group consisted of animals which only received a saline reserpine solution. At the start of the test, the rats were individually placed in specially designed test cages and tremor activity was measured continuously during a 15-min test session. These test cages consisted of a plexiglass chamber. The floor of the test cage consisted of a plexiglass plate which was centered underneath the cage. […] The floor plate rested at its four corners on a rubber point of support. Two pieces of piezo-film were tied up next to each other underneath the middle of the floor plate. Said piezo-films were connected to an amplifier. The test cage was situated in a sound and light attenuating out box, being constantly illuminated and air-ventilated. The piezo-electric response, produced by deformation of the cage floor was amplified by an individual amplifier for each piezo-film separately. […]

SMILES: Cc1nc2ccccn2c(=O)c1CCN1CCC(c2coc3cc(F)ccc23)CC1 [Co. No. 1, 3-[2-[4-(6-fluoro-3-benzofuranyl)-1-piperidinyl]ethyl]-2-methyl-4H-pyrido-[1,2-a]pyrimidin-4-one]
- rats showing a tremor activity below 35 counts (Female Wistar rats): 3
- melting point: 159.8 °C
